Results as given in patent publication US20220323406A1, “METHODS AND COMPOSITIONS FOR DIFFERENTIATING STEM CELLS” (Massachusetts Institute of Technology, priority 2019, published 2022).

Columns and labels:
[1] = test system: ENR+CD organoids (ISC to Paneth cell differentiation); test: Primary screen: basal (non-stimulated) lysozyme secretion LYZ.NS, 2.5-D 384-well ENR+CD organoid differentiation; assay type: cell-based, mouse
Description: (§1) High-throughput screening.

[2] = test system: ENR+CD organoids (ISC to Paneth cell differentiation); test: Primary screen: CCh-stimulated lysozyme secretion LYZ.S, 2.5-D 384-well ENR+CD organoid differentiation; assay type: cell-based, mouse; conditions: primary screen
Description: as §1

ENR+CD organoids = test: Primary screen: ATP (CellTiter-Glo 3D, CTG) cell number/viability, 2.5-D 384-well ENR+CD organoids;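 note: compounds given at plating and again on day 3 over a 6-day differentiation from ENR+CV stem-cell-enriched precursors, ATP measured on day 6, plate median as control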
[3] = primary screen, standard z score, dose 0.08 uM
[4] = primary screen, standard z score, dose 0.40 uM
[5] = primary screen, standard z score, dose 2.00 uM
[6] = primary screen, standard z score, dose 10.00 uM
[7] = primary screen, dose 0.08 uM, standard z score
[8] = primary screen, dose 0.40 uM, standard z score
[9] = primary screen, dose 2.00 uM, standard z score
[10] = primary screen, dose 10.00 uM, standard z score
[11] = primary screen; dose 0.08 uM; FC vs plate median
[12] = primary screen; dose 0.40 uM; FC vs plate median
[13] = primary screen; dose 2.00 uM; FC vs plate median
[14] = primary screen; dose 10.00 uM; FC vs plate median

Structure (SMILES) | Dose.FC.LYZ.NS ([1]; primary screen, dose 0.08 uM) [log2 fold change] | Dose.FC.LYZ.NS ([1]; primary screen, dose 0.40 uM) [log2 fold change] | Dose.FC.LYZ.NS ([1]; primary screen, dose 2.00 uM) [log2 fold change] | Dose.FC.LYZ.NS ([1]; primary screen, dose 10.00 uM) [log2 fold change] | Z.LYZ.NS [1, 3] | Z.LYZ.NS [1, 4] | Z.LYZ.NS [1, 5] | Z.LYZ.NS [1, 6] | Dose.FC.LYZ.S ([2]; dose 0.08 uM) [log2 fold change] | Dose.FC.LYZ.S ([2]; dose 0.40 uM) [log2 fold change] | Dose.FC.LYZ.S ([2]; dose 2.00 uM) [log2 fold change] | Dose.FC.LYZ.S ([2]; dose 10.00 uM) [log2 fold change] | Dose.FC.CTG (ENR+CD organoids; primary screen, dose 0.08 uM) [log2 fold change] | Dose.FC.CTG (ENR+CD organoids; primary screen, dose 0.40 uM) [log2 fold change] | Dose.FC.CTG (ENR+CD organoids; primary screen, dose 2.00 uM) [log2 fold change] | Dose.FC.CTG (ENR+CD organoids; primary screen, dose 10.00 uM) [log2 fold change] | further results
CO[C@H]1C[C@@H]2CC[C@@H](C)[C@@](O)(O2)C(=O)C(=O)N2CCCC[C@H]2C(=O)O[C@H]([C@H](C)C[C@@H]2CC[C@@H](OCCO)[C@H](OC)C2)CC(=O)[C@H](C)/C=C(\C)[C@@H](O)[C@@H](OC)C(=O)[C@H](C)C[C@H](C)/C=C/C=C/C=C/1C [Everolimus (RAD001)] | 0.068 | 0.110 | −0.003 | −0.024 | 0.590 | 0.956 | −0.030 | −0.210 | −0.012 | −0.007 | −0.039 | −0.096 | 0.392 | 0.127 | 0.132 | −0.111 | Z.CTG (ENR+CD organoids; [3]): 0.936; Z.CTG (ENR+CD organoids; [4]): 0.304; Z.CTG (ENR+CD organoids; [5]): 0.314; Z.CTG (ENR+CD organoids; [6]): −0.266
C=CCc1cccc(/C=N/NC(=O)CN2CCN(Cc3ccccc3)CC2)c1O [PAC-1] | – | – | – | – | – | – | – | – | – | – | – | – | – | – | – | – | Z.LYZ.NS [1, 7]: 1.365; Z.LYZ.NS [1, 8]: 0.457; Z.LYZ.NS [1, 9]: 1.094; Z.LYZ.NS [1, 10]: 0.596; Dose.FC.LYZ.NS [1, 11]: 0.157 log2 fold change; Dose.FC.LYZ.NS [1, 12]: 0.053 log2 fold change; Dose.FC.LYZ.NS [1, 13]: 0.126 log2 fold change; Dose.FC.LYZ.NS [1, 14]: 0.068 log2 fold change; Dose.FC.LYZ.S ([2]; dose 0.08 uM, FC vs plate median): 0.128 log2 fold change; Dose.FC.LYZ.S ([2]; dose 0.40 uM, FC vs plate median): 0.059 log2 fold change; Dose.FC.LYZ.S ([2]; dose 2.00 uM, FC vs plate median): −0.006 log2 fold change; Dose.FC.LYZ.S ([2]; dose 10.00 uM, FC vs plate median): 0.092 log2 fold change; Z.CTG (ENR+CD organoids; [7]): 0.228; Z.CTG (ENR+CD organoids; [8]): 0.270; Z.CTG (ENR+CD organoids; [9]): −0.576; Z.CTG (ENR+CD organoids; [10]): 0.004; Dose.FC.CTG (ENR+CD organoids; [11]): 0.095 log2 fold change; Dose.FC.CTG (ENR+CD organoids; [12]): 0.113 log2 fold change; Dose.FC.CTG (ENR+CD organoids; [13]): −0.241 log2 fold change; Dose.FC.CTG (ENR+CD organoids; [14]): 0.002 log2 fold change
COc1cc(N2CCC(N3CCN(C)CC3)CC2)ccc1Nc1ncc(Cl)c(Nc2ccccc2P(C)(C)=O)n1 [AP26113] | −0.013 | −0.062 | −0.196 | −0.272 | – | – | – | – | 0.109 | −0.038 | −0.244 | −0.343 | −0.054 | 0.061 | −0.558 | −1.680 | Z.LYZ.NS (standard z score) ([1]; primary screen, dose 0.08 uM): −0.116; Z.LYZ.NS (standard z score) ([1]; primary screen, dose 0.40 uM): −0.541; Z.LYZ.NS (standard z score) ([1]; primary screen, dose 2.00 uM): −1.706; Z.LYZ.NS (standard z score) ([1]; primary screen, dose 10.00 uM): −2.370
COc1ccc([C@]2(C#N)CC[C@@H](C(=O)O)CC2)cc1OC1CCCC1 [Cilomilast] | 0.114 | −0.037 | −0.010 | −0.043 | 0.995 | −0.321 | −0.083 | −0.376 | 0.115 | −0.109 | −0.083 | −0.045 | −0.334 | −0.338 | −0.235 | −0.192 | –
